In US9555022B2, “Substituted triazolopyridines” (Bayer Intellectual Property GmbH, priority 2010, dated 2017):

Each compound was assayed against human full length recombinant Mps-1 kinase (Homo sapiens (Human), UniProt P33981) (assay: Mps-1 Kinase Assay (TR-FRET)). Conditions: 10 μM ATP, 1 μM biotinylated peptide substrate, 60 min at 22° C., read-out: Mps-1 Inhibition, IC50 in M.
Format: biochemical
Description: The human kinase Mps-1 phosphorylates a biotinylated substrate peptide. Detection of the phosphorylated product is achieved by time-resolved fluorescence resonance energy transfer (TR-FRET) from Europium-labelled anti-phospho-Serine/Threonine antibody as donor to streptavidin labelled with cross-linked allophycocyanin (SA-XLent) as acceptor. Compounds are tested for their inhibition of the kinase activity.
N-terminally GST-tagged human full length recombinant Mps-1 kinase (purchased from Invitrogen, Karslruhe, Germany, cat. no PV4071) was used. As substrate for the kinase reaction a biotinylated peptide of the amino-acid sequence […] (C-terminus in amide form, purchased from Biosynthan GmbH, Berlin) was used.
The concentration of Mps-1 in the assay was adjusted to the activity of the enzyme lot and was chosen appropriate to have the assay in the linear range, typical enzyme concentrations were in the range of about 1 nM (final conc. in the 5 μl assay volume).
The resulting mixture was incubated 1 h at 22° C. to allow the binding of the phosphorylated peptide to the anti-phospho(Ser/Thr)-Europium-antibody. Subsequently the amount of phosphorylated substrate was evaluated by measurement of the resonance energy transfer from the Europium-labelled anti-phospho(Ser/Thr) antibody to the Streptavidin-XLent.

Sequence of human full length recombinant Mps-1 kinase (P33981 whole entry): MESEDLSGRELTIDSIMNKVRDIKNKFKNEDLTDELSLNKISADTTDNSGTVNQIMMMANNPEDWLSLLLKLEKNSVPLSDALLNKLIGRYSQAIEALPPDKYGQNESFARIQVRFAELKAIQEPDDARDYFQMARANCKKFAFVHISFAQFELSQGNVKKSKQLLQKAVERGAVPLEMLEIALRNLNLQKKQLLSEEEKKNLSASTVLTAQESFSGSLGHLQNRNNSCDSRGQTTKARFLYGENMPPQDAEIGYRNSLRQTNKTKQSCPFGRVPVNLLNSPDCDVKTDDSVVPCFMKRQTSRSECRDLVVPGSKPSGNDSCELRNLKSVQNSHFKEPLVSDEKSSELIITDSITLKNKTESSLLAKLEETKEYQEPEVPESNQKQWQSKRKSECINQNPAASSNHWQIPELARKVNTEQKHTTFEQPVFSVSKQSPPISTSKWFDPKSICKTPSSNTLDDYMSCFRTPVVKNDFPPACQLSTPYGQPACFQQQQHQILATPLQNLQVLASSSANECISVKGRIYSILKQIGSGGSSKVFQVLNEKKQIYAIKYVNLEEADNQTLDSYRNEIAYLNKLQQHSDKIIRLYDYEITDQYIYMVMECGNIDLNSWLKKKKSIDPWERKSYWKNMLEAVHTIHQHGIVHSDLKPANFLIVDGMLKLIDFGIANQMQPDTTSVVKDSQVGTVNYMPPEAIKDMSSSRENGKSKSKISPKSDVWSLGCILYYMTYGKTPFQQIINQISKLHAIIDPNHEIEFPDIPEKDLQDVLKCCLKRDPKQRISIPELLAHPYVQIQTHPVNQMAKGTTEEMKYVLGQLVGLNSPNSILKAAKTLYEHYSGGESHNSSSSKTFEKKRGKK

IC50, ≤ 1 nM:
COc1cc(C(=O)N2C[C@@H]3C[C@H]2CO3)ccc1Nc1nc2ccc(-c3ccc(C(=O)NCc4ccc(F)cc4)cc3)cn2n1 [Example 04.06, N-(4-fluorobenzyl)-4-[2-({2-methoxy-4-[(1S,4S)-2-oxa-5-azabicyclo[2.2.1]hept-5-ylcarbonyl]phenyl}amino)[,2]triazolo[1,5-a]pyridin-6-yl]benzamide]
COc1cc(C(=O)N2CC3(COC3)C2)ccc1Nc1nc2ccc(-c3ccc(C(=O)NCc4ccc(F)cc4)cc3)cn2n1 [Example 04.07, N-(4-fluorobenzyl)-4-(2-{[2-methoxy-4-(2-oxa-6-azaspiro[3.3]hept-6-ylcarbonyl)phenyl]amino}[,2]triazolo[1,5-a]pyridin-6-yl)benzamide]
COc1cc(C(=O)N2CC(O)C2)ccc1Nc1nc2ccc(-c3ccc(C(=O)NCc4ccc(F)cc4)cc3)cn2n1 [Example 04.08, N-(4-fluorobenzyl)-4-[2-({4-[(3-hydroxyazetidin-1-yl)carbonyl]-2-methoxyphenyl}amino)[,2]-triazolo[1,5-a]pyridin-6-yl]benzamide]
COc1cc(C(=O)N2CCS(=O)(=O)CC2)ccc1Nc1nc2ccc(-c3ccc(C(=O)NCc4ccc(F)cc4)cc3)cn2n1 [Example 04.09, 4-[2-({4-[(1,1-dioxidothiomorpholin-4-yl)carbonyl]-2-methoxyphenyl}amino)[,2]triazolo[1,5-a]pyridin-6-yl]-N-(4-fluorobenzyl)benzamide]
COc1cc(C(=O)N2CCC(O)CC2)ccc1Nc1nc2ccc(-c3ccc(C(=O)NCc4ccc(F)cc4)cc3)cn2n1 [Example 04.10, N-(4-fluorobenzyl)-4-[2-({4-[(4-hydroxypiperidin-1-yl)carbonyl]-2-methoxyphenyl}amino)[,2]triazolo[1,5-a]pyridin-6-yl]benzamide]
COc1cc(C(=O)NC2COC2)ccc1Nc1nc2ccc(-c3ccc(C(=O)NCc4ccc(F)cc4)cc3)cn2n1 [Example 04.11, 4-[(6-{4-[(4-fluorobenzyl)carbamoyl]phenyl}[,2]triazolo[1,5-a]pyridin-2-yl)amino]-3-methoxy-N-(oxetan-3-yl)benzamide]
CCOc1cc(C(=O)N2CC3(COC3)C2)ccc1Nc1nc2ccc(-c3ccc(C(=O)NCc4ccc(F)cc4)cc3)cn2n1 [Example 04.12, 4-(2-{[2-ethoxy-4-(2-oxa-6-azaspiro[3.3]hept-6-ylcarbonyl)phenyl]amino}[,2]-triazolo[1,5-a]pyridin-6-yl)-N-(4-fluorobenzyl)benzamide]
CCOc1cc(C(=O)N2CCN(C(C)=O)CC2)ccc1Nc1nc2ccc(-c3ccc(C(=O)NCc4ccc(F)cc4)cc3)cn2n1 [Example 04.13, 4-[2-({4-[(4-acetylpiperazin-1-yl)carbonyl]-2-ethoxyphenyl}amino)[,2]triazolo[1,5-a]pyridin-6-yl]-N-(4-fluorobenzyl)benzamide]
CCOc1cc(C(=O)N2CC(O)C2)ccc1Nc1nc2ccc(-c3ccc(C(=O)NCc4ccc(F)cc4)cc3)cn2n1 [Example 04.14, 4-[2-({2-ethoxy-4-[(3-hydroxyazetidin-1-yl)carbonyl]phenyl}amino)[,2]triazolo[1,5-a]pyridin-6-yl]-N-(4-fluorobenzyl)benzamide]
O=C(NCc1ccc(F)cc1)c1ccc(-c2ccc3nc(Nc4ccc(C(=O)N5CC6(COC6)C5)cc4OCC(F)(F)F)nn3c2)cc1 [Example 04.15, N-(4-fluorobenzyl)-4-(2-{[4-(2-oxa-6-azaspiro[3.3]hept-6-ylcarbonyl)-2-(2,2,2-trifluoroethoxy)phenyl]amino}[,2]-triazolo[1,5-a]pyridin-6-yl)benzamide]
O=C(NCc1ccc(F)cc1)c1ccc(-c2ccc3nc(Nc4ccc(C(=O)N5CC(O)C5)cc4OCC(F)(F)F)nn3c2)cc1 [Example 04.16, N-(4-fluorobenzyl)-4-[2-({4-[(3-hydroxyazetidin-1-yl)carbonyl]-2-(2,2,2-trifluoroethoxy)phenyl}amino)[,2]triazolo[1,5-a]pyridin-6-yl]benzamide]
O=C(NCc1ccc(F)cc1)c1ccc(-c2ccc3nc(Nc4ccc(C(=O)N5CCOCC5)cc4OCC(F)(F)F)nn3c2)cc1 [Example 04.17, N-(4-fluorobenzyl)-4-(2-{[4-(morpholin-4-ylcarbonyl)-2-(2,2,2-trifluoroethoxy)phenyl]amino}[,2]-triazolo[1,5-a]pyridin-6-yl)benzamide]
COc1cc(N2CCN(C)CC2)ccc1Nc1nc2ccc(-c3ccc(C(=O)NCc4ccc(F)cc4)cc3)cn2n1 [Example 04.18, N-(4-fluorobenzyl)-4-(2-{[2-methoxy-4-(4-methylpiperazin-1-yl)phenyl]amino}[,2]triazolo[1,5-a]pyridin-6-yl)benzamide]
COc1cc(N2CCN(C(C)(C)C)CC2)ccc1Nc1nc2ccc(-c3ccc(C(=O)NCc4ccc(F)cc4)cc3)cn2n1 [Example 04.19, 4-(2-{[4-(4-tert-butylpiperazin-1-yl)-2-methoxyphenyl]amino}[,2]triazolo[1,5-a]pyridin-6-yl)-N-(4-fluorobenzyl)benzamide]
O=C(NCc1ccc(F)cc1)c1ccc(-c2ccc3nc(Nc4ccc(C(=O)N5CC6(COC6)C5)cc4F)nn3c2)cc1 [Example 04.20, N-(4-fluorobenzyl)-4-(2-{[2-fluoro-4-(2-oxa-6-azaspiro[3.3]hept-6-ylcarbonyl)phenyl]amino}[,2]triazolo[1,5-a]pyridin-6-yl)benzamide]
O=C(NCc1ccc(F)cc1)c1ccc(-c2ccc3nc(Nc4ccc(C(=O)N5CCOCC5)cc4F)nn3c2)cc1 [Example 04.21, N-(4-fluorobenzyl)-4-(2-{[2-fluoro-4-(morpholin-4-ylcarbonyl)phenyl]amino}[,2]-triazolo[1,5-a]pyridin-6-yl)benzamide]
O=C(NCc1ccc(F)cc1)c1ccc(-c2ccc3nc(Nc4ccc(C(=O)N5CCOCC5)cc4OCC(F)F)nn3c2)cc1 [Example 04.22, 4-(2-{[2-(2,2-difluoroethoxy)-4-(morpholin-4-ylcarbonyl)phenyl]amino}[,2]-triazolo[1,5-a]pyridin-6-yl)-N-(4-fluorobenzyl)benzamide]
O=C(NCc1ccc(F)cc1)c1ccc(-c2ccc3nc(Nc4ccc(C(=O)N5CCOCC5)cc4C(F)(F)F)nn3c2)cc1 [Example 04.23, N-(4-fluorobenzyl)-4-(2-{[4-(morpholin-4-ylcarbonyl)-2-(trifluoromethyl)phenyl]amino}[,2]triazolo[1,5-a]pyridin-6-yl)benzamide]
COc1cc(CN2CCN(C)CC2)ccc1Nc1nc2ccc(-c3ccc(C(=O)NCc4ccc(F)cc4)cc3)cn2n1 [Example 04.24, N-(4-fluorobenzyl)-4-[2-({2-methoxy-4-[(4-methylpiperazin-1-yl)methyl]phenyl}amino)[,2]triazolo[1,5-a]pyridin-6-yl]benzamide]
COc1cc(CN2CCOCC2)ccc1Nc1nc2ccc(-c3ccc(C(=O)NCc4ccc(F)cc4)cc3)cn2n1 [Example 04.25, N-(4-fluorobenzyl)-4-(2-{[2-methoxy-4-(morpholin-4-ylmethyl)phenyl]amino}[,2]-triazolo[1,5-a]pyridin-6-yl)benzamide]
COc1cc(OC2CCN(C)CC2)ccc1Nc1nc2ccc(-c3ccc(C(=O)NCc4ccc(F)cc4)cc3)cn2n1 [Example 04.26, N-(4-fluorobenzyl)-4-[2-({2-methoxy-4-[(1-methylpiperidin-4-yl)oxy]phenyl}amino)[,2]triazolo[1,5-a]pyridin-6-yl]benzamide]
CSc1cc(OC2CCN(C)CC2)ccc1Nc1nc2ccc(-c3ccc(C(=O)NCc4ccc(F)cc4)cc3)cn2n1 [Example 04.27, N-(4-fluorobenzyl)-4-[2-({4-[(1-methylpiperidin-4-yl)oxy]-2-(methylsulfanyl)phenyl}amino)[,2]triazolo[1,5-a]pyridin-6-yl]benzamide]
Cc1cc(C(=O)N2CC3(COC3)C2)ccc1Nc1nc2ccc(-c3ccc(C(=O)NCc4ccc(F)cc4)cc3)cn2n1 [Example 04.28, N-(4-fluorobenzyl)-4-(2-{[2-methyl-4-(2-oxa-6-azaspiro[3.3]hept-6-ylcarbonyl)phenyl]amino}[,2]triazolo[1,5-a]pyridin-6-yl)benzamide]
Cc1cc(C(=O)N2CCOCC2)ccc1Nc1nc2ccc(-c3ccc(C(=O)NCc4ccc(F)cc4)cc3)cn2n1 [Example 04.29, N-(4-fluorobenzyl)-4-(2-{[2-methyl-4-(morpholin-4-ylcarbonyl)phenyl]amino}[,2]-triazolo[1,5-a]pyridin-6-yl)benzamide]
O=C(NCc1ccc(F)cc1)c1ccc(-c2ccc3nc(Nc4ccc(C(=O)N5CC6(COC6)C5)cc4OC(F)(F)F)nn3c2)cc1 [Example 04.30, N-(4-fluorobenzyl)-4-(2-{[4-(2-oxa-6-azaspiro[3.3]hept-6-ylcarbonyl)-2-(trifluoromethoxy)phenyl]amino}[,2]-triazolo[1,5-a]pyridin-6-yl)benzamide]
O=C(NCc1ccc(F)cc1)c1ccc(-c2ccc3nc(Nc4ccc(C(=O)N5CCOCC5)cc4OC(F)(F)F)nn3c2)cc1 [Example 04.31, N-(4-fluorobenzyl)-4-(2-{[4-(morpholin-4-ylcarbonyl)-2-(trifluoromethoxy)phenyl]amino}[,2]-triazolo[1,5-a]pyridin-6-yl)benzamide]
